Values joined by “and” are separate entries in the source; they are usually repeats but may differ in a detail not shown here. Equal entries are not always repeated. Square brackets hold non-standard residues; d marks the D form. Peptide text beside a SMILES is read from it. Orn = NCCC[C@H](N)C(=O)O; βAla = NCCC(=O)O
System: KSHV lytic gene expression in TREx-K-Rta BCBL-1 cells
Experiment: KSHV genome-wide qRT-PCR array
Assay type: cell-based
Settings: D
Description: Because VGN50 is derived from the KSHV transactivator sequence, we next examined if VGN50 can inhibit KSHV lytic replication by competitively blocking the coactivator binding to K-Rta. To study this, we used the TREx-K-Rta BCBL-1 cell line, in which we can trigger the expression of exogenous Flag-tagged K-Rta in a doxycycline (Dox) inducible manner. TREx-K-Rta BCBL-1 cells were treated with […] VGN50 or mutant peptide, with or without Dox induction. We used approximately one-half of the IC50 concentration of VGN50 to treat the TREx-K-Rta BCBL-1 cells in order to avoid cell toxicity effects that would non-specifically decrease viral gene expression. KSHV gene expression was profiled with a KSHV genome-wide PCR array, using ribosomal rRNA for normalization and as an internal control. Fold activation relative to the uninduced Mut-P-treated sample (not induced: Dox -) was determined and a heatmap for KSHV lytic gene expression was generated (Fig. 3a). […] Immunoblotting was used to confirm the induction of lytic replication by Dox based on exogenous K-Rta protein (Flag-K-Rta) and the expression of two other KSHV lytic proteins (ORF57 and K-bZIP) along with actin and KSHV LANA protein as controls for equal loading and similar viral copy numbers in samples, respectively (Fig. 3b).
Fig. 3 Effects of VGN50 on KSHV gene transcription and VGN50 binding with SWI/SNF components. a KSHV qRT-PCR array analysis was used to study effects of VGN50 on KSHV gene transcription in a genome-wide manner. Uninduced (−; no doxycycline added) or dox-induced (+; 1 μg/ml) cells were treated with VGN50 or the mutant peptide (Mut-P) at a concentration of 24 μM. Samples were collected at 24 h post-treatment. Expression in uninduced cells was set as 1 for each viral gene and expression shown as fold activation relative to no-Dox samples. Selected cellular genes were also included in the PCR array for comparison. 18S ribosomal RNA was used as an internal control. b KSHV protein expression. Immunoblotting was performed to confirm both endogenous and exogenous K-Rta expression before (not induced) and after induction by Dox treatment (Dox-induced). Latent KSHV protein LANA and actin were used as controls for KSHV copy number (LANA) and loading (actin), respectively. Protein samples were collected 48-h post Dox incubation. c KSHV reactivation by VGN50 incubation. BCBL-1 and BC-1 cell lines were treated with VGN50 (16 μM concentration) and total RNA harvested at 24 h post treatment. KSHV PAN RNA expression was examined by qRT-PCR and relative expression over 18S rRNA is shown. Data are presented as mean ± SD (n = 3). d Purification of recombinant SWI/SNF components. SDS-PAGE analysis of five SWI/SNF components individually prepared from baculovirus-infected Sf9 cells. e A schematic illustration of ELISA assay to evaluate VGN50 and SWI/SNF interaction. f Analysis of VGN50 binding to SWI/SNF components by ELISA. Increasing concentrations of biotin-conjugated VGN50 or Mut-P were incubated in duplicate in an ELISA plate coated with each SWI/SNF component. Peptide binding measured as OD values at 450 nm are shown. Mean OD values were compared between the VGN50 and Mut-P in each concentration using unpaired t-test. **p < 0.01, *p < 0.05, NS no significance. Data are presented as mean ± SD with duplicated samples and repeated three times with different purified protein preps.

[1] = values are 2^-ddCT (fold vs MT ND)
[2] = values are 2^-ddCT (fold vs MT ND), listed as MT

## CC(C)C[C@H](NC(=O)CCNC(=O)[C@H](CCCNC(=N)N)NC(=O)[C@H](CCCNC(=N)N)NC(=O)[C@H](CCCNC(=N)N)NC(=O)[C@H](CCCN)NC(=O)[C@H](CCCNC(=N)N)NC(=O)[C@H](CCCNC(=N)N)NC(=O)[C@H](CCCCN)NC(=O)[C@H](CCCCN)NC(=O)[C@H](N)CCCNC(=N)N)C(=O)N[C@@H](CO)C(=O)N[C@@H](CO)C(=O)N[C@@H](C)C(=O)N[C@@H](C)C(=O)N[C@@H](C)C(=O)NCC(=O)N[C@@H](CC(C)C)C(=O)N[C@@H](Cc1ccc(O)cc1)C(=O)N[C@@H](CCC(N)=O)C(=O)N[C@@H](CC(C)C)C(=O)N[C@@H](CC(=O)O)C(=O)N[C@H](C(=O)O)[C@@H](C)O [Mt-P] (H-[dR]KKRR[Orn]RRR[βAla]LSSAAAGLYQLDT-OH; N-terminus and C-terminus assumed)
  IL- 6 ddCT (vs 18s and MT ND): -2.234
  IL- 10 ddCT (vs 18s and MT ND): 0.213
  ORF21 fold vs MT ND (headed ddCT): 10.438
  ORF 50 k-kta fold vs MT ND (headed ddCT): 158.652
  k 2 fold vs MT ND (headed ddCT): 197.507
Listed as MT
  K 9 fold vs MT ND (headed ddCT): 11.999 and 11.9991
  K 10 fold vs MT ND (headed ddCT): 11.665 and 11.6651
  ORF2 fold vs MT ND (headed ddCT): 35.093 and 35.0927
  ORF4 fold vs MT ND (headed ddCT): 46.543 and 46.5425
  ORF6 fold vs MT ND (headed ddCT): 13.632 and 13.6318
  ORF7 fold vs MT ND (headed ddCT): 12.162 and 12.1623
  ORF8 fold vs MT ND (headed ddCT): 10.223 and 10.2233
  ORF9 fold vs MT ND (headed ddCT): 6.076
  ORF11 fold vs MT ND (headed ddCT): 18.177 and 18.1766
  ORF16 fold vs MT ND (headed ddCT): 8.699 and 8.6991
  ORF17 fold vs MT ND (headed ddCT): 6.815
  ORF18 fold vs MT ND (headed ddCT): 4.417
  ORF19 fold vs MT ND (headed ddCT): 8.897
  ORF 20 fold vs MT ND (headed ddCT): 5.481
  ORF22.1 fold vs MT ND (headed ddCT): 6.976
  ORF23 fold vs MT ND (headed ddCT): 4.718
  ORF24 fold vs MT ND (headed ddCT): 6.384
  ORF 25 fold vs MT ND (headed ddCT): 4.629
  ORF26 fold vs MT ND (headed ddCT): 6.591
  ORF27 fold vs MT ND (headed ddCT): 19.313 and 19.3133
  ORF28 fold vs MT ND (headed ddCT): 5.046
  ORF29 fold vs MT ND (headed ddCT): 22.418 and 22.4181
  ORF30 fold vs MT ND (headed ddCT): 5.617
  ORF31 fold vs MT ND (headed ddCT): 9.188
  ORF32 fold vs MT ND (headed ddCT): 3.227
  ORF33 fold vs MT ND (headed ddCT): 10.461 and 10.4609
  ORF34 fold vs MT ND (headed ddCT): 6.891
  ORF35 fold vs MT ND (headed ddCT): 7.441
  ORF36 fold vs MT ND (headed ddCT): 21.557 and 21.5571
  ORF37 fold vs MT ND (headed ddCT): 14.520 and 14.5196
  ORF38 fold vs MT ND (headed ddCT): 28.906 and 28.9062
  ORF39 fold vs MT ND (headed ddCT): 11.635 and 11.6345
  ORF40 fold vs MT ND (headed ddCT): 4.674
  ORF41 fold vs MT ND (headed ddCT): 21.065 and 21.0654
  ORF42 fold vs MT ND (headed ddCT): 3.993
  ORF43 fold vs MT ND (headed ddCT): 8.726
  ORF44 fold vs MT ND (headed ddCT): 33.337 and 33.3373
  ORF45 fold vs MT ND (headed ddCT): 53.618 and 53.6182
  ORF 46 fold vs MT ND (headed ddCT): 6.457
  ORF 47 fold vs MT ND (headed ddCT): 62.278 and 62.2783
  ORF48 fold vs MT ND (headed ddCT): 31.118 and 31.1177
  ORF49 fold vs MT ND (headed ddCT): 16.390 and 16.3905
  ORF52 fold vs MT ND (headed ddCT): 27.531 and 27.5312
  ORF53 fold vs MT ND (headed ddCT): 16.215 and 16.2146
  ORF54 fold vs MT ND (headed ddCT): 10.079 and 10.0788
  ORF55 fold vs MT ND (headed ddCT): 10.827 and 10.8272
  ORF56 fold vs MT ND (headed ddCT): 13.04
  ORF57 fold vs MT ND (headed ddCT): 22.128 and 22.1283
  ORF70 fold vs MT ND (headed ddCT): 15.204 and 15.2038
  T1.5 ori RNA fold vs MT ND (headed ddCT): 26.465 and 26.4646
  k 1 fold vs MT ND (headed ddCT): 7.768
  k 3 fold vs MT ND (headed ddCT): 12.567 and 12.5669
  k 4 fold vs MT ND (headed ddCT): 33.463 and 33.4629
  k 6 -2 fold vs MT ND (headed ddCT): 13.375 and 13.3749
  k 7 real fold vs MT ND (headed ddCT): 14.740 and 14.7397
  pan set 2 fold vs MT ND (headed ddCT): 11.431 and 11.4312
[1]
  EGFP ddCT (vs 18s and MT ND), second block: 2.182
  IL- 6 ddCT (vs 18s and MT ND), second block: 4.704
  ORF67 ddCT (vs 18s and MT ND), second block: 1.460
  ORF68 ddCT (vs 18s and MT ND), second block: 3.433
  ORF74 ddCT (vs 18s and MT ND), second block: 1.662
  k 14 ddCT (vs 18s and MT ND), second block: 1.713
[2]
  IL- 10 ddCT (vs 18s and MT ND), second block: 0.863 and 0.8629
  K 11 ddCT (vs 18s and MT ND), second block: 85.514 and 85.5135
  K 12 ddCT (vs 18s and MT ND), second block: 1.587
  K 15 ddCT (vs 18s and MT ND), second block: 1.316
  ORF 58 ddCT (vs 18s and MT ND), second block: 7.125
  ORF59 ddCT (vs 18s and MT ND), second block: 3.052
  ORF60 ddCT (vs 18s and MT ND), second block: 1.439
  ORF61 ddCT (vs 18s and MT ND), second block: 2.555
  ORF 62 ddCT (vs 18s and MT ND), second block: 2.303
  ORF63 ddCT (vs 18s and MT ND), second block: 4.399
  ORF64 ddCT (vs 18s and MT ND), second block: 5.462 and 5.4617
  ORF65 ddCT (vs 18s and MT ND), second block: 2.091
  ORF66 ddCT (vs 18s and MT ND), second block: 6.232
  ORF69 ddCT (vs 18s and MT ND), second block: 3.398
  ORF71 ddCT (vs 18s and MT ND), second block: 6.849
  ORF72 ddCT (vs 18s and MT ND), second block: 2.075
  ORF 73 ddCT (vs 18s and MT ND), second block: 1.648
  ORF75 ddCT (vs 18s and MT ND), second block: 1.427
  T0.7 #1 ddCT (vs 18s and MT ND), second block: 5.275
  T0.7 #2 ddCT (vs 18s and MT ND), second block: 2.071
  T1.5 #2 ddCT (vs 18s and MT ND), second block: 13.571 and 13.5709
  VIRF3 ddCT (vs 18s and MT ND), second block: 5.775
